Laboratory results as given in US20250367117A1, “VITAMIN C-ENCAPSULATED LIPOSOME AND PREPARATION METHOD THEREFOR” (Hankook Liposome Co., Ltd., priority 2022, published 2025).

Assay: Bioavailability after oral administration: blood (serum) vitamin C concentration by HPLC
Assay type: in vivo
Conditions: male, SD rat, 10 ml(200 mg)/kg
Method: The experimental animals used were SD rats (Samtago BIO KOREA Co., Ltd.), which have anatomical and physiological characteristics similar to humans and have the advantage of being useful as a pharmacokinetic model. The SD rats were male, 7-week-old (240-260 g), and were raised at a temperature of 20-24° C. and a relative humidity of 40-70%, and general symptoms were observed once a day for 5 days before the test. Solid feed for experimental animals (Purina Feed®) was provided, and the rats were allowed to consume it freely. […] As a control group, food vitamin C (purity 99.9%) was used, and the weight was measured and dissolved in purified water to prepare it. […] After putting the test substance into a 3 ml syringe, the zonde for rat oral administration was combined, and the test substance was administrated into the rat. For blood collection, about 300 μl of blood was collected from the jugular vein of all subjects in each group using a disposable syringe (1 ml, 26G, BD Biosciences, USA) at the scheduled time after administration. The blood was placed in a clean, light-shielded 1.5 ml amber tube, allowed to coagulate for 30 minutes at room temperature, and then centrifuged to separate the serum. The oral administration time points were 0, 1, 2, 4, 6, 8, 10, 12, and 24 hours (total of 9 time points). For blood sample separation and analysis, the harvested whole blood was coagulated and centrifuged at 3,000 rpm for 10 minutes using a centrifuge (Micro17R, Hanil, KOR) to separate the serum. Each 100 μl×1 tube was placed in a 1.5 ml Amber tube labeled with the test type, animal number, and blood collection time and stored in an ultra-low temperature freezer (approximately −70° C.). When testing, the stored samples were thawed at room temperature and the blood concentration of vitamin C was analyzed using HPLC (Alliance e2695, Waters, USA). […] For sample processing and analysis, 70 μL of the sample was taken and placed in a microtube, 70 μL of metaphosphoric acid (0.1 g/mL in water) was added, and then mixed using a vortexer for 30 seconds. The mixture was centrifuged at 14,000 rpm for 10 minutes, and the supernatant was transferred to a vial and injected into the HPLC for analysis. Since vitamin C is an endogenous substance, it was used after serum dialysis.

## O=C1O[C@H]([C@@H](O)CO)C(O)=C1O [vitamin C, ascorbic acid]
  Cmax: 12000 ng/mL
  Tmax: 7.67 h
read-out: AUC0-24 of vitamin C
  AUC(0-t): 234 µg·h/mL
read-out: T1/2 of vitamin C (converted)
  half-life: 27.8 h
